Results reported in patent US9848603B2, “Methods for protecting plants with antifungal compositions” (priority 2008, dated 2017).
Ends that are not written are not given here.

Columns and labels:
Fov hyphae [1] = experiment: Detection of reactive oxygen species (DHR123 oxidation) in response to NaD1; settings: for effect of ROS scavenger on NaD1-induced DHR123 oxidation: in the presence of ascorbic acid or TEMPO
[2] = tested on: Fusarium oxysporum f. sp. vasinfectum (Fov); assay type: cell-based
[3] = tested on: Fusarium oxysporum f. sp. vasinfectum (Fov); experiment: Growth of Fusarium oxysporum in the presence of NaD1 and chemical fungicides in vitro; assay type: cell-based; settings: Fov growth curves, combination with NaD1
Procedure: The inhibitory effects of defensin (NaD1) and chemical fungicides on the growth of Fusarium oxysporum f. sp. vasinfectum (Fov) (Australian isolate VCG01111 isolated from cotton and provided by Farming Systems Institute, DPI, Queensland, Australia) were measured essentially as described by Broekaert, et al (1990). Spores were isolated from sporulating cultures growing in ½ strength potato dextrose broth (PDB). The Fov culture was grown in ½ PDB for 1-2 weeks at room temperature, before spores were separated from hyphal matter by filtration through sterile tissue paper. The concentration of spores in the filtrate was measured using a hemocytometer. NaD1 and the fungicides were prepared as described in Example 1. The conditions used for the fungal growth assay were the same as those described in Example 1.

Leptosphaeria maculans = experiment: Growth of Leptosphaeria maculans in the presence of NaD1 and chemical fungicides in vitro; assay type: cell-based; settings: L. maculans, combination with NaD1
Procedure: The defensin (NaD1) and the chemical fungicides prothioconazole (Sigma-Aldrich Cat #34232, 99.9% pure) and fluquinconazole (Nova Chem, Cat #C13805000, 98.5% pure) were assessed for their individual and combined inhibitory effects on the growth of Leptosphaeria maculans (Australian isolate IBCN18, Prof. B. Howlett) in vitro.
Leptosphaeria maculans was grown in 10% (v/v) V8 medium for about 2 weeks. Spores were collected by filtration through sterile muslin and adjusted to a final concentration of 5×10^4 spores/mL. The conditions used for the fungal growth assay were the same as those described in Example 1 except 10% (v/v) V8 medium was used.

Verticillium dahliae = experiment: Growth of Verticillium dahliae in the presence of NaD1 and chemical fungicides in vitro; assay type: cell-based; settings: V. dahliae growth curves, combination with NaD1
Procedure: The inhibitory effects of defensin (NaD1) and chemical fungicides were assayed on growth of Verticillium dahliae (Australian isolate VCG-4B, Dr. Stephen Allen, Cotton Seed Distributors, Narrabri, NSW, Australia) in vitro.
Spores of V. dahliae were isolated from sporulating cultures growing in Czapek-Dox broth (Difco) for 1-2 weeks at room temperature. Spores were separated from hyphal matter by filtration through sterile tissue paper and the concentration of spores in the filtrate was measured using a hemocytometer. NaD1 and the fungicides were prepared as described in Example 1. The conditions used for the fungal growth assay were the same as those described in Example 1 except that Czapek-Dox broth was used in place of PDB.

Fusarium graminearum = experiment: microbe, parasite or virus in culture; assay type: cell-based
Saccharomyces cerevisiae = experiment: Effect of NaD1 on growth of yeast strains
Procedure: (§1) The effect of NaD1 on the growth of the yeast strains Candida albicans, Pichia pastoris and Saccharomyces cerevisiae (from Department of Microbiology, La Trobe University) was assayed in microtitre plates. Cells were grown in YPD for 48 h, then counted using a haemocytometer and diluted to a concentration of 5×10^4 cells/mL in fresh YPD. Cell suspension (100 μL) containing 0-10 μM NaD1 was added to the wells of a 96-well microtitre plate and incubated for 48 h at 30° C. Growth was determined by measuring the optical density at 595 nm using a microtitre plate reader. Each test was performed in quadruplicate.

Fov hyphae [4] = experiment: Uptake of fluorescently labeled NaD1 (NaD1-bimane) by fluorescence microscopy; settings: live hyphae
Procedure: Hyphae grown for 18 h as described were treated with NaD1-bimane (2 μM) for between 10 min and 6 h. Hyphae were then visualized by fluorescence microscopy using an MWU filter (excitation wavelength of 330-385 nm).

Fov hyphae [5] = experiment: Membrane permeabilization of Fov hyphae, SYTOX green uptake; assay type: cell-based, Fusarium oxysporum f. sp. vasinfectum; settings: 0.1, 2 or 10 μM NaD1 or 10 μM NaD1R&A
Candida albicans = experiment: Effect of NaD1 on growth of yeast strains
Procedure: as §1

CC1(C)CCCC(C)(C)N1[O] [TEMPO]
effect of ROS scavenger on NaD1-induced DHR123 oxidation (Fov hyphae [1]): did not alter the level of fluorescence

O=C1O[C@H]([C@@H](O)CO)C(O)=C1O [ascorbic acid, Ascorbic acid]
effect of ROS scavenger on growth inhibition of Fov by NaD1 [2]: nor did the presence of 10 mM ascorbic acid affect growth inhibition of Fov by NaD1
effect of ROS scavenger on NaD1-induced DHR123 oxidation (Fov hyphae [1]): did not alter the level of fluorescence

CO/C=C(/C(=O)OC)c1ccccc1Oc1cc(Oc2ccccc2C#N)ncn1 [azoxystrobin]
synergism with NaD1 [3]: synergistic effect

CO/N=C(/C1=NOCCO1)c1ccccc1Oc1ncnc(Oc2ccccc2Cl)c1F [fluoxastrobin]
synergism with NaD1 [3]: synergy

O=c1c2cc(F)ccc2nc(-n2cncn2)n1-c1ccc(Cl)cc1Cl [fluquinconazole]
enhancement of fungicide activity by defensin (Leptosphaeria maculans): synergistic

C[Si](Cn1cncn1)(c1ccc(F)cc1)c1ccc(F)cc1 [flusilazole]
synergism with NaD1 (Verticillium dahliae): Synergism

CO/C=C(/C(=O)OC)c1ccccc1COc1cccc(C(F)(F)F)n1 [picoxystrobin]
synergism with NaD1 [3]: synergy

CCCC1COC(Cn2cncn2)(c2ccc(Cl)cc2Cl)O1 (stereo not drawn) [propiconazole]
synergism with NaD1 (Verticillium dahliae): Synergism
toxicity with Fusarium graminearum (Fusarium graminearum; 0.24 μM NaD1 combined with 1 mg/L propiconazole): significantly enhanced
synergism with NaD1 (Fusarium graminearum; F. graminearum growth curves, combination with NaD1): Synergism
inhibition at 0.06 µg/mL (Fusarium graminearum; Fusarium graminearum, read-out: inhibition of fungal growth): ~13%
inhibition of fungal growth (Fusarium graminearum; combination of 0.5 μM defensin and 0.06 mg/L propiconazole): about 78%
synergism with NaD1 [3]: Synergism

OC(Cc1ccccc1Cl)(Cn1nc[nH]c1=S)C1(Cl)CC1 (stereo not drawn) [prothioconazole]
enhancement of fungicide activity by defensin (Leptosphaeria maculans): synergistic

CC(C)(C)C(O)(CCc1ccc(Cl)cc1)Cn1cncn1 (stereo not drawn) [tebuconazole]
synergism with NaD1 (Verticillium dahliae): Synergism

DmAMP1: plant defensin from dahlia (ELCEKASKTWSGNCGNTGHCDNQCKSWEGAAHGACHVRNGKHMCFCYFNC; UniProt P0C8Y4 1-50, looked up) [reference compound]
effect on growth (Saccharomyces cerevisiae): inhibited the growth

NaD1 labeled with FITC: NaD1 labeled with FITC via reactive amine groups (RECKTESNTFPGICITKPPCRKACISEKFTDGHCSKILRRCLCTKPC; cysteine pairing not given here; also: FITC label via reactive amine groups; UniProt Q8GTM0 26-72, looked up)
antifungal activity of labeled NaD1 [2]: not biologically active

NaD1-bimane: NaD1 labeled with the fluorophore bimane amine on carboxyl residues (RECKTESNTFPGICITKPPCRKACISEKFTDGHCSKILRRCLCTKPC; cysteine pairing not given here; also: bimane amine fluorophore on carboxyl residues; UniProt Q8GTM0 26-72, looked up)
antifungal activity of labeled NaD1 [2]: retained full antifungal activity
time at which internalization was observed (Fov hyphae [4]): 20 to 30 min

NaD1R&A: NaD1 with cysteine residues reduced and alkylated (RECKTESNTFPGICITKPPCRKACISEKFTDGHCSKILRRCLCTKPC; also: cysteines reduced and alkylated; UniProt Q8GTM0 26-72, looked up)
activity in growth inhibitory assays [2]: completely inactive
ROS production (DHR123 oxidation fluorescence) (Fov hyphae [1]; NaD1 0.1, 2 and 10 μM or 10 μM NaD1R&A): No fluorescence was observed
permeabilization of hyphae (SYTOX green) (Fov hyphae [5]): Permeabilization was not observed

RsAFP2: plant defensin from radish (QKLCQRPSGTWSGVCGNNNACKNQCIRLEKARHGSCNYVFPAHKCICYFPC; UniProt P30230 30-80, looked up) [reference compound]
effect on growth (Candida albicans): inhibited the growth
